# Entries after “also recorded” stand apart in the source; their conditions may differ.
# Experiments:
# [1] = target: T1, mGlu1 V405H/D322C/D324H (HCH) mutant (Rattus norvegicus, UniProt P23385, D322C/D324H/V405H); assay: Fluorescent Ca2+ imaging in transfected HEK293 cells, HCH mutant; type: cell-based; conditions: for activation of HCH mutant (Δratio): secondary screening, 3 μM metal ion or complex
# T1 construct: expressed in transfected cells; host or cells: HEK293
# mGlu1(N264H) mutant [2] = target: T2, mGlu1(N264H) mutant (Rattus norvegicus, UniProt P23385, N264H); design: method as in Ojima et al., 2021; conditions: previously reported; ref Ojima et al., 2021; cited from earlier work
# T2 construct: expressed in transfected cells; host or cells: HEK293
# T2 sequence (P23385 19-1199 N264H): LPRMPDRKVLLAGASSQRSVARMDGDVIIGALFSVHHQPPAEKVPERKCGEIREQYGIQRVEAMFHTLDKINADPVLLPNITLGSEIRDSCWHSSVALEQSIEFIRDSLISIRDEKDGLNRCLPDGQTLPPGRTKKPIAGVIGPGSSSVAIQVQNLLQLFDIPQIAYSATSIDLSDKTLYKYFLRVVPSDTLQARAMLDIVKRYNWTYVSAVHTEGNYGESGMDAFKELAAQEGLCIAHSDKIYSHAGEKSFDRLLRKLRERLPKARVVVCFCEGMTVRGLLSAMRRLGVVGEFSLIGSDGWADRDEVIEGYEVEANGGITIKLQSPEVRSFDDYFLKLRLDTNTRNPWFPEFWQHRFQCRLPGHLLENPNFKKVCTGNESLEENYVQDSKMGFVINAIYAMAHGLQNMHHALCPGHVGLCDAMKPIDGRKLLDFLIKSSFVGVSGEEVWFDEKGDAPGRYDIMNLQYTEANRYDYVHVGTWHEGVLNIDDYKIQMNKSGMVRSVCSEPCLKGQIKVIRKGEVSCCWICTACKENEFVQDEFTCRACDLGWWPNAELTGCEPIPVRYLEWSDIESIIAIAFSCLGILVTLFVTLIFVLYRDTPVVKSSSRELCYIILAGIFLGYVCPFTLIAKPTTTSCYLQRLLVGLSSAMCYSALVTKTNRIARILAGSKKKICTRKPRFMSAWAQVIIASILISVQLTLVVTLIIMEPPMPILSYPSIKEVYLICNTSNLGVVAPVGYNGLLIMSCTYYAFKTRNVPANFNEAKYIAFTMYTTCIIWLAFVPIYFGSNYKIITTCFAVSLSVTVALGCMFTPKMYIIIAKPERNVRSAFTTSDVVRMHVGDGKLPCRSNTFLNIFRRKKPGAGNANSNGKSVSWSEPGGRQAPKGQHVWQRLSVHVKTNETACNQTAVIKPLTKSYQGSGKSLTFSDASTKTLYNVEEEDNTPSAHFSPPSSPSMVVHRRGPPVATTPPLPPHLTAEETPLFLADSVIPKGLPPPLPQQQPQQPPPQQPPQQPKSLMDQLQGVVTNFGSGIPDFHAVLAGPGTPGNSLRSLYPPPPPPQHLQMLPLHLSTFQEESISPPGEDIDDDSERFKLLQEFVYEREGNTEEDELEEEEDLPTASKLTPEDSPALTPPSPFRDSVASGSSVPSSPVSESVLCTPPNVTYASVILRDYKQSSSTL
# WT mGlu1 = target: T3, WT mGlu1 (Rattus norvegicus, UniProt P23385); assay: Fluorescent Ca2+ imaging (Fura-2) in transfected HEK293 cells, WT mGlu1; type: cell-based; conditions: at the concentration of the mutant's EC50 (1.5 µM Cu^2+; 0.44 µM Zn^2+)
# T3 construct: expressed in transfected cells; host or cells: HEK293
# T3 sequence (P23385 19-1199): as the sequence (P23385 19-1199 N264H) above, with H246N counted along it
# [3] = target: T4, mGlu1 Q73H/D324H/E325C mutant (Rattus norvegicus, UniProt P23385, D324H/E325C/Q73H); assay: Fluorescent Ca2+ imaging in transfected HEK293 cells, Q73H/D324H/E325C mutant; type: cell-based; conditions: for activation of Q73H/D324H/E325C mutant (Δratio): primary screening, 3 μM metal ion or complex
# T4 construct: expressed in transfected cells; host or cells: HEK293
# T4 sequence (P23385 19-1199 Q73H/D324H/E325C): as the sequence (P23385 19-1199 N264H) above, with Q55H, H246N, D306H, E307C counted along it
# mGlu1 E325C mutant = target: T5, mGlu1 E325C mutant (Rattus norvegicus, UniProt P23385, E325C); assay: Fluorescent Ca2+ imaging in transfected HEK293 cells, E325C mutant; type: cell-based; conditions: for activation / metal selectivity of E325C mutant (Δratio): heat map: 3 μM metal ion or complex
# T5 construct: expressed in transfected cells; host or cells: HEK293
# T5 sequence (P23385 19-1199 E325C): as the sequence (P23385 19-1199 N264H) above, with H246N, E307C counted along it
# mGlu1(N264H) mutant [4] = target: T2, mGlu1(N264H) mutant; assay: Fluorescent Ca2+ imaging in transfected HEK293 cells, N264H mutant; type: cell-based; conditions: for activation of N264H mutant (Δratio): heat map: 3 μM metal ion or complex
# [5] = target: T6, mGlu1 V405C/D322H/D324H (CHH) mutant (Rattus norvegicus, UniProt P23385, D322H/D324H/V405C); assay: Fluorescent Ca2+ imaging in transfected HEK293 cells, CHH mutant; type: cell-based; conditions: secondary screening, 3 μM metal ion or complex
# T6 construct: expressed in transfected cells; host or cells: HEK293
# T6 sequence (P23385 19-1199 D322H/D324H/V405C): as the sequence (P23385 19-1199 N264H) above, with H246N, D304H, D306H, V387C counted along it
# mGlu1 Q73H/D324H mutant = target: T7, mGlu1 Q73H/D324H mutant (Rattus norvegicus, UniProt P23385, D324H/Q73H); assay: Fluorescent Ca2+ imaging in transfected HEK293 cells, Q73H/D324H mutant; type: cell-based; conditions: 1 μM CuCl2
# T7 construct: expressed in transfected cells; host or cells: HEK293
# T7 sequence (P23385 19-1199 Q73H/D324H): as the sequence (P23385 19-1199 N264H) above, with Q55H, H246N, D306H counted along it
# mGlu1 Q73H/E325C mutant = target: T8, mGlu1 Q73H/E325C mutant (Rattus norvegicus, UniProt P23385, E325C/Q73H); assay: Fluorescent Ca2+ imaging in transfected HEK293 cells, Q73H/E325C mutant; type: cell-based; conditions: 1 μM CuCl2
# T8 construct: expressed in transfected cells; host or cells: HEK293
# T8 sequence (P23385 19-1199 Q73H/E325C): as the sequence (P23385 19-1199 N264H) above, with Q55H, H246N, E307C counted along it
# mGlu1 D324H/E325C mutant = target: T9, mGlu1 D324H/E325C mutant (Rattus norvegicus, UniProt P23385, D324H/E325C); assay: Fluorescent Ca2+ imaging in transfected HEK293 cells, D324H/E325C mutant; type: cell-based; conditions: 1 μM CuCl2
# T9 construct: expressed in transfected cells; host or cells: HEK293
# T9 sequence (P23385 19-1199 D324H/E325C): as the sequence (P23385 19-1199 N264H) above, with H246N, D306H, E307C counted along it
# mGlu1 H55F/E325C mutant = target: T10, mGlu1 H55F/E325C mutant (Rattus norvegicus, UniProt P23385, E325C/H55F); assay: Fluorescent Ca2+ imaging in transfected HEK293 cells, H55F/E325C mutant; type: cell-based; conditions: 1 μM CuCl2, compared with E325C
# T10 construct: expressed in transfected cells; host or cells: HEK293
# T10 sequence (P23385 19-1199 H55F/E325C): as the sequence (P23385 19-1199 N264H) above, with H37F, H246N, E307C counted along it
# mGlu1 E72A/E325C mutant = target: T11, mGlu1 E72A/E325C mutant (Rattus norvegicus, UniProt P23385, E325C/E72A); assay: Fluorescent Ca2+ imaging in transfected HEK293 cells, E72A/E325C mutant; type: cell-based; conditions: 1 μM CuCl2, compared with E325C
# T11 construct: expressed in transfected cells; host or cells: HEK293
# T11 sequence (P23385 19-1199 E72A/E325C): as the sequence (P23385 19-1199 N264H) above, with E54A, H246N, E307C counted along it
# mGlu1 Q73A/E325C mutant = target: T12, mGlu1 Q73A/E325C mutant (Rattus norvegicus, UniProt P23385, E325C/Q73A); assay: Fluorescent Ca2+ imaging in transfected HEK293 cells, Q73A/E325C mutant; type: cell-based; conditions: 1 μM CuCl2, compared with E325C
# T12 construct: expressed in transfected cells; host or cells: HEK293
# T12 sequence (P23385 19-1199 Q73A/E325C): as the sequence (P23385 19-1199 N264H) above, with Q55A, H246N, E307C counted along it
# [6] = target: T13, mGlu1 V405H/D322H/D324C (HHC) mutant (Rattus norvegicus, UniProt P23385, D322H/D324C/V405H); assay: Fluorescent Ca2+ imaging in transfected HEK293 cells, HHC mutant; type: cell-based; conditions: primary screening, 3 μM metal ion or complex
# T13 construct: expressed in transfected cells; host or cells: HEK293
# T13 sequence (P23385 19-1199 D322H/D324C/V405H): as the sequence (P23385 19-1199 N264H) above, with H246N, D304H, D306C, V387H counted along it
# mGlu1 V405H/D322C mutant = target: T14, mGlu1 V405H/D322C mutant (Rattus norvegicus, UniProt P23385, D322C/V405H); assay: Fluorescent Ca2+ imaging in transfected HEK293 cells, V405H/D322C mutant; type: cell-based; conditions: compared with HCH mutant
# T14 construct: expressed in transfected cells; host or cells: HEK293
# T14 sequence (P23385 19-1199 D322C/V405H): as the sequence (P23385 19-1199 N264H) above, with H246N, D304C, V387H counted along it
# mGlu1 V405H/D324H mutant = target: T15, mGlu1 V405H/D324H mutant (Rattus norvegicus, UniProt P23385, D324H/V405H); assay: Fluorescent Ca2+ imaging in transfected HEK293 cells, V405H/D324H mutant; type: cell-based; conditions: compared with HCH mutant
# T15 construct: expressed in transfected cells; host or cells: HEK293
# T15 sequence (P23385 19-1199 D324H/V405H): as the sequence (P23385 19-1199 N264H) above, with H246N, D306H, V387H counted along it
# mGlu1 D322C/D324H mutant = target: T16, mGlu1 D322C/D324H mutant (Rattus norvegicus, UniProt P23385, D322C/D324H); assay: Fluorescent Ca2+ imaging in transfected HEK293 cells, D322C/D324H mutant; type: cell-based; conditions: compared with HCH mutant
# T16 construct: expressed in transfected cells; host or cells: HEK293
# T16 sequence (P23385 19-1199 D322C/D324H): as the sequence (P23385 19-1199 N264H) above, with H246N, D304C, D306H counted along it
# [7] = target: T17, mGlu1 H55/P58H/N264C mutant (Rattus norvegicus, UniProt P23385, N264C/P58H); assay: Fluorescent Ca2+ imaging in transfected HEK293 cells, H55/P58H/N264C mutant; type: cell-based; conditions: primary screening, 3 μM metal ion or complex
# T17 construct: expressed in transfected cells; host or cells: HEK293
# T17 sequence (P23385 19-1199 P58H/N264C): as the sequence (P23385 19-1199 N264H) above, with P40H, H246C counted along it
# T1 sequence (P23385 19-1199 D322C/D324H/V405H): as the sequence (P23385 19-1199 N264H) above, with H246N, D304C, D306H, V387H counted along it
Compound,activation of HCH mutant (Δratio) [1],activation of mGlu1(N264H) mutant (mGlu1(N264H) mutant [2]),activation of WT mGlu1 in dose dependency (WT mGlu1),activation of Q73H/D324H/E325C mutant (Δratio) [3],activation / metal selectivity of E325C mutant (Δratio) (mGlu1 E325C mutant),activation of N264H mutant (Δratio) (mGlu1(N264H) mutant [4]),activation of CHH mutant (Δratio) [5],activation of V405H/D322H/D324C (HHC) mutant (Δratio) [6],also measured
[Cd+2] [Cd^2+],moderately,failed to activate,,,,,,,
"[Cu+2] [Cu^2+, CuCl2]",not activated at all; also recorded: insensitive,failed to activate,not activated,strongly activated,high selectivity,not activated,strongly activated,,"EC50 ([3]; HEK293 cells, Q73H/D324H/E325C mutant, dose dependency, read-out: EC50 of activation (Δratio, [Ca2+]i)): 1500 nM; Cu^2+-induced response (Δratio) of E325C single mutant (mGlu1 E325C mutant; 1 μM CuCl2): maintained; EC50 (mGlu1 E325C mutant; HEK293 cells, E325C mutant, dose dependency, read-out: EC50 of activation (Δratio, [Ca2+]i)): 220 nM; activation of E325C mutant by Cu^2+ in the co-presence of Pd (bpy) (mGlu1 E325C mutant; [CuCl2] = 1 μM, [Pd(bpy)] = 3 μM): impaired; cell-specific activation of E325C-expressing cells in mixed culture (mGlu1 E325C mutant; three HEK293 cell types on one coverslip, sequential perfusion 60 s, 1 μM CuCl2): selectively activated; Cu^2+-induced response (Δratio) of Q73H/D324H mutant (mGlu1 Q73H/D324H mutant): loss in sensitivity; Cu^2+-induced response (Δratio) of Q73H/E325C mutant (mGlu1 Q73H/E325C mutant): prominent Cu^2+-induced responses; Cu^2+-induced response (Δratio) of D324H/E325C mutant (mGlu1 D324H/E325C mutant): prominent Cu^2+-induced responses; Cu^2+-induced response (Δratio) of H55F/E325C mutant (mGlu1 H55F/E325C mutant): drastically decreased; Cu^2+-induced response (Δratio) of E72A/E325C mutant (mGlu1 E72A/E325C mutant): drastically decreased; sensitivity to Cu^2+ (Δratio) of Q73A/E325C mutant (mGlu1 Q73A/E325C mutant): slightly affected"
[Ni+2] [Ni^2+],moderately,failed to activate,,moderate sensitivity,,,strongly activated,showed sensitivity; also recorded: activated,
[Pd+2] [Pd^2+],,failed to activate,,,,,strongly activated,,
"[Zn+2] [Zn^2+, ZnCl2]",activated strongly,failed to activate,not activated at all,,not activated,not activated,strongly activated,,"EC50 ([1]; HEK293 cells, HCH mutant, dose dependency, read-out: EC50 of activation (Δratio, [Ca2+]i)): 440 nM; activation of HCH mutant by Zn^2+ in the co-presence of Cu^2+ ([1]; [ZnCl2] = 3 μM, [CuCl2] = 1 μM): impaired; cell-specific activation of HCH-expressing cells in mixed culture ([1]; three HEK293 cell types on one coverslip, sequential perfusion 60 s, 3 μM ZnCl2): selectively activated; Zn^2+-induced response (Δratio) of V405H/D322C mutant (mGlu1 V405H/D322C mutant): significantly impaired; Zn^2+-induced response (Δratio) of V405H/D324H mutant (mGlu1 V405H/D324H mutant): significantly impaired; Zn^2+-induced response (Δratio) of D322C/D324H mutant (mGlu1 D322C/D324H mutant): significantly impaired"
"Pd-2,2′-bipyridine [Pd (bpy)]",not activated at all; also recorded: insensitive,selective activation,,not activated,not activated,selectively activated,,activated,"activation of N264H mutant by Pd(bpy) in the co-presence of Cu2+ or Zn2+ (mGlu1(N264H) mutant [4]; [Pd(bpy)] = 3 μM, [CuCl2] = 1 μM, [ZnCl2] = 3 μM): did not affect; cell-specific activation of N264H-expressing cells in mixed culture (mGlu1(N264H) mutant [4]; three HEK293 cell types on one coverslip, sequential perfusion 60 s, 3 μM Pd (bpy)): selectively activated; activation of H55/P58H/N264C mutant (Δratio) [7]: activated"

# — article PMC8795677 (Frontiers in Chemistry, 2022)
